Where a name gives a salt, the structure may show the parent alone.
The compounds below were run against human VR1 (Homo sapiens, UniProt Q8NER1) (assay: Acid stimulation assay (acid-induced intracellular calcium change, FDSS 6000)). Conditions: final assay buffer pH5.8, 15 min pre-incubation, read-out: IC50 (nM) Low pH.
Type: cell-based
Description: VR1 antagonistic activity can be determined by the Ca^2+ imaging assay using human VR1 highly expressing cells. The cells that highly express human VR1 receptors are obtainable from several different conventional methods. The one standard method is cloning from human Dorsal Root Ganglion (DRG) or kidney according to the methods such as described in the journal article; Nature, 389, pp 816-824, 1997. Alternatively VR1 receptors highly expressing human keratinocytes are also known and published in the journal article (Biochemical and Biophysical Research Communications, 291, pp 124-129, 2002). […] Furthermore, the method to up regulate human VR1 gene, which is usually a silent gene or don't produce detectable level of VR1 receptors, is also available to obtain propriety cells. Such genetic modification method was described in detail; Nat. Biotechnol., 19, pp 440-445, 2001.
The cells that express human VR1 receptors were maintained in culture flask at 37° C. in an environment containing 5% CO2 until use in the assay. The intracellular Ca^2+ imaging assay to determine VR1 antagonistic activities were done by following procedures.
The culture medium was removed from the flask and fura-2/AM fluorescent calcium indicator was added to the flask at a concentration of 5 μM in the medium. The flask was placed in CO2 incubator and incubated for 1 hour. Then the cells expressing the human VR1 receptors were detached from the flask follow by washing with phosphate buffer saline, PBS(−) and re-suspended in assay buffer. The 80 tit of aliquot of cell suspension (3.75×10^5 cells/ml) was added to the assay plate and the cells were spun down by centrifuge (950 rpm, 20° C., 3 minutes).
(§1) The Acid-induced changes in the intracellular calcium concentration were monitored using FDSS 6000 (Hamamatsu Photonics, Japan), a fluorometric imaging system. The cell suspension in resting buffer (HBSS supplemented with 10 mM HEPES, pH 7.4) were pre-incubated with varying concentrations of the test compounds or resting buffer (buffer control) for 15 minutes at room temperature under the dark condition. The cells were automatically added the stimulating solution (HBSS supplemented with MES, final assay buffer pH5.8) by the FDSS 6000.
as §1, with “7.4) was” for “7.4) were”, “under” for “under the”, “dark conditions.” for “dark condition.”, “added to” for “added”

Chain of human VR1 (Q8NER1 whole entry): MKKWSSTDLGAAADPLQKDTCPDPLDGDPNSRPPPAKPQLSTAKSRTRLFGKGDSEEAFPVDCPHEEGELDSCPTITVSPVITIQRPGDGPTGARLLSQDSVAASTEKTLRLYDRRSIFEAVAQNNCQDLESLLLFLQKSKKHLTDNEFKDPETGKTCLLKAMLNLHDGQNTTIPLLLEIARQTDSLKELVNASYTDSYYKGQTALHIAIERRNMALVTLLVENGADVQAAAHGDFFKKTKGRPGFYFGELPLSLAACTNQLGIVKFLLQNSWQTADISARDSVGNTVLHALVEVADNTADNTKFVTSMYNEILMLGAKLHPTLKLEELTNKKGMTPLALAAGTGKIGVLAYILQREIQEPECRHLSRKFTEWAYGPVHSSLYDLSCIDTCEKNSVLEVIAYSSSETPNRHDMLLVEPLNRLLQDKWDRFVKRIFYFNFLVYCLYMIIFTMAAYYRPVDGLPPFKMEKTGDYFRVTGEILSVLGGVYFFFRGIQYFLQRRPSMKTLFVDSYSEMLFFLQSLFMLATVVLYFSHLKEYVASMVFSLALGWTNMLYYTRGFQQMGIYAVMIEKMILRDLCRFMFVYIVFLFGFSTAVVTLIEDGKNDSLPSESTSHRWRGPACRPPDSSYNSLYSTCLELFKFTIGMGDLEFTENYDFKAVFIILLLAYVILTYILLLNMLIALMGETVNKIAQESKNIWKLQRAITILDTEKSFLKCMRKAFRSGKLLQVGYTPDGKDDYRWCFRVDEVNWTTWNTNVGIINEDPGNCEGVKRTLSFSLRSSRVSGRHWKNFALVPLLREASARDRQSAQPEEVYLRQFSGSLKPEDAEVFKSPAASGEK

Row | IC50 [nM] | Structure (SMILES)
1 | 149 | Cc1cc([C@@H](C)NC(=O)c2ccc3nc(N4CCC(C)(C)CC4)ccc3c2)c(F)cc1NS(C)(=O)=O [Example 113]
2 | 33 | Cc1cc([C@@H](C)NC(=O)c2ccc3nc(C(F)(F)F)nc(N4CCOCC4)c3c2)c(F)cc1NS(C)(=O)=O [Example 112, 4-MORPHOLIN-4-YL-2-TRIFLUOROMETHYL-QUINAZOLINE-6-CARBOXYLIC ACID [(R)-1-(2-FLUORO-4-METHANESULFONYLAMINO-5-METHYL-PHENYL)-ETHYL]-AMIDE]
3 | 22 | Cc1cc([C@@H](C)NC(=O)c2ccc3cc(C4CC4)ccc3c2)c(Cl)cc1NS(C)(=O)=O [Example 52, (R)—N-(1-(2-CHLORO-5-METHYL-4-(METHYLSULFONAMIDO)PHENYL)ETHYL)-6-CYCLOPROPYL-2-NAPHTHAMIDE]
4 | 112 | Cc1cc([C@@H](C)NC(=O)c2ccc3nc(C(F)(F)F)cc(N4CC[C@@H](O)C4)c3c2)c(F)cc1NS(C)(=O)=O [Example 90, 4-((R)-3-HYDROXYPYRROLIDIN-1-YL)-2-TRIFLUOROMETHYLQUINOLINE-6-CARBOXYLIC ACID [(R)-1-(2-FLUORO-4-METHANESULFONYLAMINO-5-METHYLPHENYL)ETHYL]AMIDE]
5 | 288 | Cc1cc([C@@H](C)NC(=O)c2ccc3cc(C(C)(C)C)ccc3n2)c(F)cc1NS(C)(=O)=O [Example 14, 6-TERT-BUTYL-N-((1R)-1-{2-FLUORO-5-METHYL-4-[(METHYLSULFONYL)AMINO]PHENYL}-ETHYL)QUINOLINE-2-CARBOXAMIDE]
6 | 370 | Cc1cc([C@@H](C)NC(=O)c2ccc3nc(C(F)(F)F)cc(N4CCC[C@@H]4CO)c3c2)c(F)cc1NS(C)(=O)=O [Example 93, 4-((R)-2-HYDROXYMETHYLPYRROLIDIN-1-YL)-2-TRIFLUOROMETHYLQUINOLINE-6-CARBOXYLIC ACID [(R)-1-(2-FLUORO-4-METHANESULFONYLAMINO-5-METHYLPHENYL)ETHYL]AMIDE]
7 | 111 | Cc1cc([C@@H](C)NC(=O)c2cnc3cc(C4CC4)cnc3c2)c(F)cc1NS(C)(=O)=O [Example 87, 7-CYCLOPROPYL-[1.5]NAPHTHYRIDINE-3-CARBOXYLIC ACID [(R)-1-(2-FLUORO-4-METHANESULFONYLAMINO-5-METHYL-PHENYL)-ETHYL]-AMIDE]
8 | 41 | CCOC(=O)N1CCN(c2nc(C(F)(F)F)nc3ccc(C(=O)N[C@H](C)c4cc(C)c(NS(C)(=O)=O)cc4F)cc23)CC1 [Example 96, 4-{6-[(R)-1-(2-FLUORO-4-METHANESULFONYLAMINO-5-METHYL-PHENYL)-ETHYLCARBAMOYL]-2-TRIFLUOROMETHYL-QUINAZOLIN-4-YL}-PIPERAZINE-1-CARBOXYLIC ACID ETHYL ESTER]
9 | 127 | Cc1cc([C@@H](C)NC(=O)c2ccc3cc(C(C)(C)C)ccc3c2)c(F)cc1NS(C)(=O)=O [Example 13, 6-TERT-BUTYL-N-((1R)-1-{2-FLUORO-5-METHYL-4-[(METHYLSULFONYL)AMINO]PHENYL}-ETHYL)-2-NAPHTHAMIDE]
10 | 366 | Cc1cc([C@@H](C)NC(=O)c2ccc3nc(C(F)(F)F)cc(N4CC[C@H](O)C4)c3c2)c(F)cc1NS(C)(=O)=O [Example 91, 4-((S)-3-HYDROXY-PYRROLIDIN-1-YL)-2-TRIFLUOROMETHYLQUINOLINE-6-CARBOXYLIC ACID [(R)-1-(2-FLUORO-4-METHANESULFONYLAMINO-5-METHYLPHENYL)ETHYL]AMIDE]
11 | 51 | Cc1cc([C@@H](C)NC(=O)c2ccc3nc(C(F)(F)F)nc(N4CCCCC4)c3c2)c(F)cc1NS(C)(=O)=O [Example 84, 4-PIPERIDIN-1-YL-2-TRIFLUOROMETHYL-QUINAZOLINE-6-CARBOXYLIC ACID [(R)-1-(2-FLUORO-4-METHANESULFONYLAMINO-5-METHYL-PHENYL)-ETHYL]-AMIDE]
12 | 94 | Cc1cc([C@@H](C)NC(=O)c2ccc3nc(N4CCC(F)(F)CC4)ccc3c2)c(F)cc1NS(C)(=O)=O [Example 110, (R)-2-(4,4-DIFLUOROPIPERIDIN-1-YL)-N-(1-(2-FLUORO-5-METHYL-4-(METHYLSULFONAMIDO)PHENYL)ETHYL)QUINOLINE-6-CARBOXAMIDE]
13 | 48 | Cc1cc([C@@H](C)NC(=O)c2ccc3nc(C(F)(F)F)cc(N4CCC(C(F)(F)F)CC4)c3c2)c(F)cc1NS(C)(=O)=O [Example 76, 2-TRIFLUOROMETHYL-4-(4-TRIFLUOROMETHYL-PIPERIDIN-1-YL)-QUINOLINE-6-CARBOXYLIC ACID [(R)-1-(2-FLUORO-4-METHANESULFONYLAMINO-5-METHYL-PHENYL)-ETHYL]-AMIDE]

More lines, now with the values behind:

Row | Structure (SMILES) | IC50 [nM]
14 | Cc1cc([C@@H](C)NC(=O)c2ccc3cc(C(F)(F)F)ccc3c2)ccc1NS(C)(=O)=O [Example 51, N-((1R)-1-{3-METHYL-4-[(METHYLSULFONYL)AMINO]PHENYL}ETHYL)-6-(TRIFLUORO-METHYL)-2-NAPHTHAMIDE] | 1
15 | Cc1cc([C@@H](C)NC(=O)c2ccc3ccc(C(F)(F)F)cc3c2)ccc1NS(C)(=O)=O [Example 77] | 4
16 | Cc1cc([C@@H](C)NC(=O)c2cnc3cc(C(F)(F)F)ccc3c2C)ccc1NS(C)(=O)=O [Example 11, 4-METHYL-N-((1R)-1-{3-METHYL-4-[(METHYLSULFONYL)AMINO]PHENYL}ETHYL)-7-(TRIFLUOROMETHYL)QUINOLINE-3-CARBOXAMIDE] | 240
17 | Cc1cc([C@@H](C)NC(=O)c2ccc3cc(F)ccc3c2)ccc1NS(C)(=O)=O [Example 18, 6-FLUORONAPHTHALENE-2-CARBOXYLIC ACID [(R)-1-(4-METHANESULFONYL-AMINO-3-METHYLPHENYL)ETHYL]AMIDE] | 83
18 | Cc1cc([C@@H](C)NC(=O)c2cnc3ccc(C(C)(C)C)cc3c2)ccc1NS(C)(=O)=O [Example 29, 6-TERT-BUTYL-N-((1R)-1-{3-METHYL-4-[(METHYLSULFONYL)AMINO]PHENYL}ETHYL)-QUINOLINE-3-CARBOXAMIDE] | 231
19 | Cc1cc([C@@H](C)NC(=O)c2cc3ccc(Cl)cc3nc2C)ccc1NS(C)(=O)=O [Example 23, 7-CHLORO-2-METHYL-QUINOLINE-3-CARBOXYLIC ACID [(R)-1-(4-METHANESULFONYL-AMINO-3-METHYLPHENYL)ETHYL]AMIDE] | 379
20 | Cc1cc([C@@H](C)NC(=O)c2ccc3cc(C(C)(C)C)ccc3c2)ncc1NS(C)(=O)=O [Example 40, 6-TERT-BUTYL-N-((1R)-1-{4-METHYL-5-[(METHYLSULFONYL)AMINO]PYRIDIN-2-YL}ETHYL)-2-NAPHTHAMIDE] | 31
21 | Cc1cc([C@@H](C)NC(=O)c2ccc3cc(C4(C)CC4)ccc3c2)ncc1NS(C)(=O)=O [Example 58, (R)—N-(1-(4-METHYL-5-(METHYLSULFONAMIDO)PYRIDIN-2-YL)ETHYL)-6-(1-METHYL-CYCLOPROPYL)-2-NAPHTHAMIDE] | 7
22 | C[C@@H](NC(=O)c1ccc2cc(C(F)(F)F)ccc2c1)c1ccc(NS(C)(=O)=O)c(CO)c1 [Example 74, N-((1R)-1-{3-(HYDROXYMETHYL)-4-[(METHYLSULFONYL)AMINO]PHENYL}ETHYL)-6-(TRIFLUOROMETHYL)-2-NAPHTHAMIDE] | 13
23 | Cc1cc([C@@H](C)NC(=O)c2ccc3cc(N4CCCC4)ccc3c2)ccc1NS(C)(=O)=O [Example 21, 6-PYRROLIDIN-1-YL-NAPHTHALENE-2-CARBOXYLIC ACID [(R)-1-(4-METHANESULFONYL-AMINO-3-METHYLPHENYL)ETHYL]AMIDE] | 44
24 | C[C@@H](NC(=O)c1ccc2nc(C(C)(C)C)ccc2c1)c1cc(F)c(NS(C)(=O)=O)c(F)c1 [Example 15, 2-TERT-BUTYL-N-((1R)-1-{3,5-DIFLUORO-4-[(METHYLSULFONYL)AMINO]PHENYL}ETHYL)-QUINOLINE-6-CARBOXAMIDE HYDROCHLORIDE] | 24
